{
  "source": "patent US20160296529A1",
  "about": "“AMINOTRIAZOLOPYRIDINE FOR USE IN THE TREATMENT OF INFLAMMATION, AND PHARMACEUTICAL COMPOSITIONS THEREOF” (priority 2012, published 2016)",
  "key": {"[1]": {"target": "T1, Recombinant human JAK3 catalytic domain (Homo sapiens, UniProt P52333)", "T1 construct": "amino acids 795-1124; catalog number 08-046; purchased Carna Biosciences 08-046", "T1 sequence (P52333 795-1124)": "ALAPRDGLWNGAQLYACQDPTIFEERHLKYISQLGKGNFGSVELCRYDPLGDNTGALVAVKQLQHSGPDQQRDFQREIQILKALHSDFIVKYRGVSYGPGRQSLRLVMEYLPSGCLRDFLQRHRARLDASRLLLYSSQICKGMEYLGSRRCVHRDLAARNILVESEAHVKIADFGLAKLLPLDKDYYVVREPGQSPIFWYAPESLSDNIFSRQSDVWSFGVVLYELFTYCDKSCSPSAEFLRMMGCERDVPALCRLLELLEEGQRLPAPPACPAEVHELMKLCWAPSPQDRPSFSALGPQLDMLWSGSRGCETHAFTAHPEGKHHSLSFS", "assay": "JAK3 inhibition assay", "type": "biochemical", "experimental": "Recombinant human JAK3 catalytic domain (amino acids 795-1124; catalog number 08-046) was purchased from Carna Biosciences. 0.5 ng JAK3 protein was incubated with 2.5 μg polyGT substrate (Sigma catalog number P0275) in kinase reaction buffer (25 mM Tris pH 7.5, 0.5 mM EGTA, 10 mM MgCl2, 2.5 mM DTT, 0.5 mM Na3VO4, 5 mM b-glycerophosphate, 0.01% Triton X-100, 1 μM non-radioactive ATP, 0.25 μCi ^33P-gamma-ATP (Perkin Elmer, catalog number NEG602K001MC) final concentrations) with or without 5 μL containing test compound or vehicle (DMSO, 1% final concentration), in a total volume of 25 μL, in a polypropylene 96-well plate (Greiner, V-bottom). After 45 min at 30° C., reactions were stopped by adding 25 μL/well of 150 mM phosphoric acid. […] 40 μL/well of Microscint-20 was added, the top of the plates was sealed and readout was performed using the Topcount (Perkin Elmer). Kinase activity was calculated by subtracting counts per min (cpm) obtained in the presence of a positive control inhibitor (10 μM staurosporine) from cpm obtained in the presence of vehicle. The ability of a test compound to inhibit this activity was determined as:\n(§1) Percentage inhibition=((cpm determined for sample with test compound present−cpm determined for sample with positive control inhibitor) divided by (cpm determined in the presence of vehicle−cpm determined for sample with positive control inhibitor))*100. […]"}, "[2]": {"target": "T2, Recombinant human JAK2 catalytic domain (Homo sapiens, UniProt O60674)", "T2 construct": "amino acids 808-1132; catalog number PV4210; GST; purchased Invitrogen PV4210", "T2 sequence (O60674 808-1132)": "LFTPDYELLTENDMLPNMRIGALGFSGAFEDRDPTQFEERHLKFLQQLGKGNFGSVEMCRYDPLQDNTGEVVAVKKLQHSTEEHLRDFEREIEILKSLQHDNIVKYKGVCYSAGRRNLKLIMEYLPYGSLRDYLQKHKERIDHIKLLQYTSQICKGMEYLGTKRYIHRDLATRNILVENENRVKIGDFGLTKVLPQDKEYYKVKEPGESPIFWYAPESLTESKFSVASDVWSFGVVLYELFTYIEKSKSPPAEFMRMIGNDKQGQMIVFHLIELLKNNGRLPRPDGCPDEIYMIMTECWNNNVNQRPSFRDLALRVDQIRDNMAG", "assay": "JAK2 assay polyGT substrate", "type": "biochemical", "experimental": "Recombinant human JAK2 catalytic domain (amino acids 808-1132; catalog number PV4210) was purchased from Invitrogen. 0.05 mU of JAK2 was incubated with 2.5 μg polyGT substrate (Sigma catalog number P0275) in kinase reaction buffer (10 mM MOPS pH 7.5, 0.5 mM EDTA, 0.01% Brij-35, 1 mM DTT, 15 mM MgAc, 1 μM non-radioactive ATP, 0.25 μCi ^33P-gamma-ATP (Perkin Elmer, catalog number NEG602K001MC) final concentrations) with or without 5 μL containing test compound or vehicle (DMSO, 1% final concentration), in a total volume of 25 μL, in a polypropylene 96-well plate (Greiner, V-bottom). After 90 min at 30° C., reactions were stopped by adding of 25 μL/well of 150 mM phosphoric acid. […] 40 μL/well of Microscint-20 was added, the top of the plates was sealed and readout was performed using the Topcount (Perkin Elmer). Kinase activity was calculated by subtracting counts per min (cpm) obtained in the presence of a positive control inhibitor (10 μM staurosporine) from cpm obtained in the presence of vehicle. The ability of a test compound to inhibit this activity was determined as:\nas §1"}, "[3]": {"details": "average, read-out: IC50 (average)"}, "[4]": {"details": "individual determinations, read-out: IC50"}},
  "note": "Where “and” joins values, the source holds several entries; their conditions need not be identical. Equal entries are not always repeated. Where two headings read alike, the source gives them in different places.",
  "data": [
    {"compound": "Nc1nc2cccc(-c3ccc(CN4CCS(=O)(=O)CC4)cc3)n2n1", "note": "[Formula I, 5-[4-(1,1-Dioxothiomorpholin-4-ylmethyl)-phenyl]-[1,2,4]triazolo[1,5-a]pyridin-2-ylamine]", "values": [
      {"measurement": "IC50", "setting": "[1]; [3]", "result": "> 3.61", "unit": "µM"},
      {"measurement": "IC50", "setting": "[1]; [4]", "result": "2.5 µM and 3.2 µM and 3.37 µM and > 4 µM (5×) and > 3.33 µM (2×) and 3.94 µM"},
      {"measurement": "IC50", "setting": "[2]; [3]", "result": 0.624, "unit": "µM"},
      {"measurement": "IC50", "setting": "[2]; [4]", "result": "0.567 µM and 0.365 µM and 0.256 µM and 0.915 µM and 1.02 µM"}
    ]}
  ]
}
